Twelve molecules from BindingDB's records for doi:10.1111/j.1747-0285.2010.01010.x (University of Washington, 2010) can be followed below.

For this assay, the target named is Thymidylate synthase (Homo sapiens, UniProt P04818). The assay is described as follows: Tritium Release Assay. The following applies: pH 7.5; 4 °C.
Chain of Thymidylate synthase (P04818 whole entry): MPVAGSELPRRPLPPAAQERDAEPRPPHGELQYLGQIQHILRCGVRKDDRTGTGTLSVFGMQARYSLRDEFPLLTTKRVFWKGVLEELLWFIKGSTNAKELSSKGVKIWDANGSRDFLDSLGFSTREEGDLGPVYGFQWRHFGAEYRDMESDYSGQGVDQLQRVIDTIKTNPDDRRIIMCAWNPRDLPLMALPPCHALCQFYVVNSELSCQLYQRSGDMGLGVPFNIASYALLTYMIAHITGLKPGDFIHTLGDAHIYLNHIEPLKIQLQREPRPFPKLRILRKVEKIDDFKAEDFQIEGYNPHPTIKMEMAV

Molecule `CCN1C(=O)c2cccc3c(NC(=O)c4cccs4)ccc1c23` [MV1554] came in with a half-inhibitory concentration (IC50) of 160 µM.
In the case of `Cc1c(C(=O)NCCc2cccs2)nnn1-c1ccccc1` [MV1555], the 50% inhibitory concentration (IC50) came to 30 µM and binding was put at a Kd of 5 µM.
In turn, `O=C(O)c1ccc(/N=C/c2ccc(-c3cccs3)s2)cc1` [MV1556] came in with an IC50 of 240 µM.
Still for that read-out and setting: under `CC(=NNC(=O)Cc1c(C)[nH]c2ccc(C)cc12)c1cccs1` [MV1561] stands 160 µM.
Molecule `CCc1ccc(/C=N/NC(=O)c2c[nH]c3ccccc23)s1` [MV1565] displayed a half-inhibitory concentration (IC50) of 70 µM and a Kd of 1 µM.
For `O=C(NCCc1c[nH]c2ccccc12)/C(=C\c1cccs1)NC(=O)c1cccs1` [MV1570] the same measures were 70 µM and 2 µM.
`CC(OC(=O)c1cc2occc2n1C)C(=O)NCc1cccs1` (stereo not given) [MV1574]: the IC50 is over 500 µM.
Still for that read-out and setting: the value for `CCOC(=O)c1cc2occc2n1CC(=O)N1CCc2ccccc21` [MV1576] was 140 µM; that for `CCOC(=O)c1cc2oc(C)cc2n1CC#N` [MV1578] was over 500 µM.
Still for that read-out and setting: under `Cc1onc(-c2ccccc2)c1C(=O)NCc1cccs1` [MV1581] stands over 500 µM; under `O=C(NCc1cccs1)c1nc(-c2ccccc2)no1` [MV1586], 115 µM; under `Cc1cc(C(=O)CSc2nnc(N)s2)c(C)n1Cc1ccco1` [MV1588], 115 µM.

By IC50 is commonly meant the concentration that inhibits the measured activity by half. Read a high IC50 as weaker potency in that assay. By Kd is commonly meant the free concentration of one partner at which half of the binding sites on the other are occupied at equilibrium, for simple one-to-one binding. Higher therefore signals weaker binding.
